ChEMBL document CHEMBL1833828, “Efficient conversion of a nonselective norepinephrin reuptake inhibitor into a dual muscarinic antagonist-β₂-agonist for the treatment of chronic obstructive pulmonary disease” (J Med Chem, 2011)

How the values were obtained:
[1] = molecular target: T1, Muscarinic acetylcholine receptor M3 (Homo sapiens, UniProt P20309); test: Displacement of [3H]N-methylscopolamine from human M3 receptor
Target sequence in this assay (P20309 whole entry): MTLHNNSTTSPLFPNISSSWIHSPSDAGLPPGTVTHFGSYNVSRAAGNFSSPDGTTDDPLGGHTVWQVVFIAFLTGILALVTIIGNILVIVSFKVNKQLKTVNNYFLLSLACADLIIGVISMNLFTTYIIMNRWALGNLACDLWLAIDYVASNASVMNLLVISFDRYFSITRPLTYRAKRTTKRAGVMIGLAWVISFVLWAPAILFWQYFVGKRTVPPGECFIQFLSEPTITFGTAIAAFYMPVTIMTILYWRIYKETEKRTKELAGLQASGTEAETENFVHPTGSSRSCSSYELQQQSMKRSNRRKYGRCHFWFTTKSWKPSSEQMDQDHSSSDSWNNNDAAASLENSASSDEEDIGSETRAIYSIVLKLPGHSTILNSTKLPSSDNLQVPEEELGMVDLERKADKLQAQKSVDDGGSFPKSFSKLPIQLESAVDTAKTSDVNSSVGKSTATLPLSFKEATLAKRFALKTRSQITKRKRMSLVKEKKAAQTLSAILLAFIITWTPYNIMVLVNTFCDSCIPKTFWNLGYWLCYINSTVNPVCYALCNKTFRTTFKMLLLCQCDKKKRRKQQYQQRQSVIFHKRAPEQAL

[2] = molecular target: T2, Sodium-dependent noradrenaline transporter (Homo sapiens, UniProt P23975); test: Displacement of [3H]nisoxetine from human NET receptor
T2 sequence (P23975 whole entry): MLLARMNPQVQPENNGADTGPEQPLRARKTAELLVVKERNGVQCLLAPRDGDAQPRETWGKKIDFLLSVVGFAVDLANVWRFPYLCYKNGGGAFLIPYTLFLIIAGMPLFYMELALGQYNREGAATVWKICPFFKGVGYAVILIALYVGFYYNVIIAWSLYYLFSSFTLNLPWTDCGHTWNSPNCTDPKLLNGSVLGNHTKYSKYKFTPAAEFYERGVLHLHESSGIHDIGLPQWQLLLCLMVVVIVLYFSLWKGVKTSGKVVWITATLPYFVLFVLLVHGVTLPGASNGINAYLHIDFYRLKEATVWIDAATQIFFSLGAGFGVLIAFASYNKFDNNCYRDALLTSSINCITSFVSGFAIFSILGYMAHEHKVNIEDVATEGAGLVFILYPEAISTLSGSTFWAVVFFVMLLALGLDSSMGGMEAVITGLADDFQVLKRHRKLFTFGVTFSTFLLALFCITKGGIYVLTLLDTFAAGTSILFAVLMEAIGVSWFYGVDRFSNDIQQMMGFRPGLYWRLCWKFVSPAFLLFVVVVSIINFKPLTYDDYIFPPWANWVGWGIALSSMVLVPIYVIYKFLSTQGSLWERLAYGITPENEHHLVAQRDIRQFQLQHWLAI

[3] = Lipophilicity, log D of the compound; type: physicochemical; conditions: octanol/water
[4] = Metabolic stability in human liver microsomes; type: ADME, Microsome; conditions: read-out: Stability
[5] = molecular target: T3, Beta-2 adrenergic receptor (Homo sapiens, UniProt P07550); test: Agonist activity at human beta-2 adrenergic receptor expressed in CHO cells assessed as induction of intracellular cAMP production; type: functional, cell-based
Target sequence in this assay (P07550 whole entry): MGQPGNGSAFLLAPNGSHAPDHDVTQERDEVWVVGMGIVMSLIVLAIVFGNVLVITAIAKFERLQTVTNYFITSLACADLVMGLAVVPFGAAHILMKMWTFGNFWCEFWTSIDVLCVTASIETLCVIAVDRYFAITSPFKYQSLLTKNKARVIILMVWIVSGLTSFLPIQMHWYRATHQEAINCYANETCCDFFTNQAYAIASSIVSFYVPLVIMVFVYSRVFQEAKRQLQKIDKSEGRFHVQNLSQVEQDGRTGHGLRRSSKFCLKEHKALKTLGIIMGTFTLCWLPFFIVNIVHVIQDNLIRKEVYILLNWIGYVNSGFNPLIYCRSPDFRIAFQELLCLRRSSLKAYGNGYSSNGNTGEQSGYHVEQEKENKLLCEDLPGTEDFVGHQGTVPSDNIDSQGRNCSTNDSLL

[6] = molecular target: Beta-1 adrenergic receptor (Homo sapiens, UniProt P08588); test: Agonist activity at beta-1 adrenergic receptor; type: functional
Beta-1 adrenergic receptor, sequence (P08588 whole entry): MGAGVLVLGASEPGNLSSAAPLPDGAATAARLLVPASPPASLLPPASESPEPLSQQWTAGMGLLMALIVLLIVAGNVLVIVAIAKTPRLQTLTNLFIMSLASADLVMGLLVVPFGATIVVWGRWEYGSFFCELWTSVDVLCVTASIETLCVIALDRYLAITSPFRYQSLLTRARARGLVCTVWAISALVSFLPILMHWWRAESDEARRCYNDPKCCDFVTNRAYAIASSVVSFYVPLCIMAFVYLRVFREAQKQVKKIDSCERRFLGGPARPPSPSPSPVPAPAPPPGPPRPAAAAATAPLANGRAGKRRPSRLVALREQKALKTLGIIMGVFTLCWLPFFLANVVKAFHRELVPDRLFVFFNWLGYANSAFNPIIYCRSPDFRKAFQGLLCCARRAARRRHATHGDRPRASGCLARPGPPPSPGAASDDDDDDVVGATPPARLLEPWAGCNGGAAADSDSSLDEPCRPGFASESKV

[7] = molecular target: T1, Muscarinic acetylcholine receptor M3; test: Antagonist activity at human cloned M3 receptor assessed as time taken to reach 50% of total [3H]NMS for solvent treated membranes by dilution-offset method; type: functional
Target sequence in this assay (P20309 whole entry, looked up): as the sequence (P20309 whole entry) above

[8] = molecular target: T3, Beta-2 adrenergic receptor; test: Agonist activity at human cloned beta-2 adrenergic receptor expressed in CHO cells after compound wash-out relative to unwashed cells; type: functional, cell-based
Target sequence in this assay (P07550 whole entry, looked up): as the sequence (P07550 whole entry) above

Cavia porcellus = organism: Cavia porcellus; test: Bronchodilatory action in guinea pig trachea assessed as inhibition of electrical field-stimulated acetylcholine release; type: functional
[9] = Bronchodilatory action against electrical field-stimulated constriction in guinea pig trachea assessed as time taken for the muscle tone at EC70 to recover by 50% of inhibition induced; type: functional, Cavia porcellus
[10] = Bronchodilatory action in guinea pig trachea assessed as inhibition of electrical field-stimulated acetylcholine release in the presence of beta-2 adrenergic receptor antagonist propranolol; type: functional, tissue-based, Cavia porcellus
[11] = Bronchodilatory action against electrical field-stimulated constriction in guinea pig trachea assessed as time taken for the muscle tone at EC70 to recover by 50% of inhibition induced in the presence of beta-2 adrenergic receptor antagonist propranolol; type: functional, Cavia porcellus
[12] = Permeability across human Caco2 cells; type: ADME, cell-based; conditions: Caco-2, read-out: permeability
[13] = molecular target: T2, Sodium-dependent noradrenaline transporter; test: Binding affinity at human NET receptor at 10 uM

| SMILES | Ki [1] | Ki [2] | logD [3] | microsomal CLint [4] | EC50 [5] | EC50 [6] | TIME [7] | fold change (FC) [8] | EC50 (Cavia porcellus) | Time [9] | EC50 [10] | Time [11] | Papp [12] | Activity [13] |
| --- | --- | --- | --- | --- | --- | --- | --- | --- | --- | --- | --- | --- | --- | --- |
| Fc1cccc(F)c1-n1nc(OC2CCNCC2)c2ccccc21 | 49 nM | 6.8 nM | 1.4 | < 8 µL/min/mg |  |  |  |  |  |  |  |  |  |  |
| Oc1cccc(F)c1-n1nc(OC2CCNCC2)c2ccccc21 | 10 nM |  | 0.6 | < 8 µL/min/mg |  |  |  |  |  |  |  |  |  |  |
| Oc1cccc(F)c1-n1nc(OC2CCNCC2)c2c1CCCC2 | 2.5 nM | 2900 nM | 0.3 | < 8 µL/min/mg |  |  |  |  |  |  |  |  |  |  |
| O=c1ccc2c([C@@H](O)CNCCCCCCCCCN3CCC(Oc4nn(-c5c(O)cccc5F)c5c4CCCC5)CC3)ccc(O)c2[nH]1 | 2.2 nM |  | 2.4 | 25 µL/min/mg | 14 nM | > 10 µM | < 0.267 h | 1.5 | 28 nM | >16 h | 27 nM | >16 h | < 1 ×10⁻⁶ cm/s |  |
| Cc1ccc(O)c([C@H](CCN(C(C)C)C(C)C)c2ccccc2)c1 [TOLTERODINE] |  |  | 1.8 | < 8 µL/min/mg |  |  |  |  |  |  |  |  |  | 15% |
